Changes are numbered by the printed parent chain.
Columns and labels:
Bcr-Abl^T315I = target: T1, Bcr-Abl^T315I (Homo sapiens, UniProt P00519, T315I); assay: Kinase activation assay (IC50), fluorescence polarization tyrosine kinase assay kit; format: biochemical; conditions: T315I mutation kinase domain (Millipore), Poly (Glu, Tyr) 4:1 substrate, FP readout
T1 construct: purchased Millipore
T1 sequence (P00519 242-493 T315I limits assumed): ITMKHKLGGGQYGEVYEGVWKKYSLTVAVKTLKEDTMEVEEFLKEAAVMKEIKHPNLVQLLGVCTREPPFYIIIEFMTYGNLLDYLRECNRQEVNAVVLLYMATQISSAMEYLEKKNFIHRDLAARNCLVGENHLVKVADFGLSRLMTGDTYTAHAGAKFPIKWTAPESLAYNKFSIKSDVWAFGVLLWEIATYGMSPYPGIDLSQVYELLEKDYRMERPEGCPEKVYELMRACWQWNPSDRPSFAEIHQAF
Procedure: (§1) Test 1: Kinase Activation Assay (IC50)
(§2) A kinase domain (Millipore) comprising the entire cytoplasmic sequences of Bcr-Abl^wt and Bcr-Abl^T315I mutation kinases and a tyrosine kinase assay kit (Panvera, P2837) were used to measure an inhibitory activation on Bcr-abl. Other kinases such as FGFR, Flt, KDR, PDGFR, Fms, Kit, Raf, Tie2, Src, and Ret were also measured by the same method. In order to prepare a sample, the each compound obtained in Examples 1 to 128 was diluted 10 times with a kinase buffer to a concentration of 10˜0.0001 μM.
(§3) The each kinase was diluted with a kinase buffer to a concentration of 30˜300 ng/assay by using the each Kd value. The kinase buffer consisted of 100 mM HEPES (PH 7.4), 25 mM MgCl2, 10 mM MnCl2, and 250 μM Na3VO4, being kept refrigerated after filtered.
(§4) The test was conducted in 96 well polystyrene round bottom plates. First, 10 μL of the diluted sample was combined with 10 μL of the enzyme solution at room temperature for 10 minutes using a shaker. 10 μL of Poly (Glu, Tyr) 4:1 (Sigma) matrix solution in an appropriate concentration and 10 μL of ATP solution (5˜300 μM) were added to the sample and subjected to a reaction at room temperature for 60 minutes in a shaker. After 60 minutes, an EDTA solution was added thereto to complete the kinase reaction and the reaction mixture was left in a shaker for 5 minutes at room temperature. A tracer, an antibody, and a fluorescence polarization (FP) diluted reaction solution were mixed at a ratio of 1:1:3 to prepare a detecting solution, 50 μL of which was added to the each sample and subjected to a reaction at room temperature for 30 minutes in a shaker. As fluorescing, light was blocked out and the FP value was measured using a FP instrument (excitation wavelength: 485 nm, and emission wavelength: 530 nm).
(§5) And the inhibition on kinase reaction was calculated for the sample in the range of 0˜100% as compared to the control group, and the concentration on x-axis at 50% inhibition was obtained as an inhibitory concentration (IC50) value.
(§6) 50% inhibitory concentration (IC50) Y=bottom+(top−bottom)/(1+10exp(X−log IC50)

Bcr-Abl^wt = target: T2, Bcr-Abl^wt (Homo sapiens, UniProt P00519); assay: as above; format: biochemical; conditions: kinase domain (Millipore), Poly (Glu, Tyr) 4:1 substrate, FP readout
T2 construct: purchased Millipore
T2 sequence (P00519 242-493 limits assumed): T1 sequence (P00519 242-493 T315I limits assumed) with I74T
Procedure: as §1, §2, §3, §4, §5, §6

Row | SMILES | IC50 (Bcr-Abl^T315I) [nM] | IC50 (Bcr-Abl^wt) [nM]
1 | Cc1cc(C(=O)Nc2ccc(C)c(NC(=O)c3csc4c(N)ncnc34)c2)n(Cc2ccc(F)cc2)n1 [Example 68, 4-amino-N-(5-(1-(4-fluorobenzyl)-3-methyl-1H-pyrazole-5-carboxyamido)-2-methylphenyl)thieno[3,2-d]pyrimidine-7-carboxamide] | 1000 to 10000 | 1000 to 10000
2 | CCN1CCN(Cc2ccc(C(=O)Nc3ccc(C)c(/C=C/c4csc5c(N)ncnc45)c3)cc2C(F)(F)F)CC1 [Example 7, (E)-N-(3-(2-(4-aminothieno[3,2-d]pyrimidine-7-yl)vinyl)-4-methylphenyl)-4-((4-ethylpiperazin-1-yl)methyl)-3-(trifluoromethyl)benzamide] | 100 to 1000 | 1 to 100
3 | CCN1CCN(Cc2ccc(C(=O)Nc3ccc(C)c(NC(=O)c4csc5c(N)ncnc45)c3)cc2C(F)(F)F)CC1 [Example 49, 4-amino-N-(5-(4-((4-ethylpiperazine-1-yl)methyl)-3-(trifluoromethyl)benzamido)-2-methylphenyl)thieno[3,2-d]pyrimidine-7-carboxamide] | 1 to 100 | 1 to 100
4 | Cc1ccc(NC(=O)c2cccc(C(F)(F)F)c2)cc1/C=C/c1csc2c(N)ncnc12 [Example 6, (E)-N-(3-(2-(4-aminothieno[3,2-d]pyrimidine-7-yl)vinyl)-4-methylphenyl)-3-(trifluoromethyl)benzamide] | 1000 to 10000 | 100 to 1000
5 | Cc1ccc(NC(=O)c2cc(N3CCCN(C)CC3)cc(C(F)(F)F)c2)cc1NC(=O)c1csc2c(NC3CC3)ncnc12 [Example 93, 4-(cyclopropylamino)-N-(2-methyl-5-(3-(4-methyl-1,4-diazepan-1-yl)-5-(trifluoromethyl)benzoamido)phenyl)thieno[3,2-d]pyrimidine-7-carboxamide] | 1 to 100 | 1 to 100
6 | Cc1ccc(NC(=O)c2cc(N3CCC[C@H]3C)cc(C(F)(F)F)c2)cc1NC(=O)c1csc2c(NC3CC3)ncnc12 [Example 113, (R)-4-(cyclopropylamino)-N-(2-methyl-5-(3-(2-methylpyrrolidine-1-yl)-5-(trifluoromethyl)benzoamido)phenyl)thieno[3,2-d]pyrimidine-7-carboxamide] | 100 to 1000 | 100 to 1000
7 | Cc1ccc(NC(=O)c2cc(-n3cccc3)cc(C(F)(F)F)c2)cc1NC(=O)c1csc2c(N)ncnc12 [Example 45, N-(5-(3-(1H-pyrrol-1-yl)-5-(trifluoromethyl)benzamido)-2-methylphenyl)-4-aminothieno[3,2-d]pyrimidine-7-carboxamide] | 1 to 100 | 1 to 100
8 | CNc1ncnc2c(C(=O)Nc3cc(NC(=O)c4cc(-n5cnc(C)c5)cc(C(F)(F)F)c4)ccc3C)csc12 [Example 78, N-(2-methyl-5-(3-(4-methyl-1H-imidazole-1-yl)-5-(trifluoromethyl)benzoamido)phenyl)-4-(methylamino)thieno[3,2-d]pyrimidine-7-carboxamide] | 100 to 1000 | 1 to 100
9 | Cc1ccc(NC(=O)c2ccc(CN3CCCN(C)CC3)c(C(F)(F)F)c2)cc1NC(=O)c1csc2c(NC3CC3)ncnc12 [Example 87, 4-(cyclopropylamino)-N-(2-methyl-5-(4-((4-methyl-1,4-diazepan-1-yl)methyl)-3-(trifluoromethyl)benzoamido)phenyl)thieno[3,2-d]pyrimidine-7-carboxamide] | 1 to 100 | 1 to 100
10 | Cc1ccc(NC(=O)c2cc(NCCCN(C)C)cc(C(F)(F)F)c2)cc1NC(=O)c1csc2c(NC3CC3)ncnc12 [Example 41, 4-(cyclopropylamino)-N-(5-(3-(3-(dimethylamino)propylamino)-5-(trifluoromethyl)benzamido)-2-methylphenyl)thieno[3,2-d]pyrimidine-7-carboxamide] | 1 to 100 | 1 to 100
11 | Cc1ccc(C(=O)Nc2cccc(C(F)(F)F)c2)cc1NC(=O)c1csc2c(NC(C)C)ncnc12 [Example 17, 4-(isopropylamino)-N-(2-methyl-5-(3-(trifluoromethyl)phenylcarbamoyl)phenyl)thieno[3,2-d]pyrimidine-7-carboxamide] | 1000 to 10000 | 1 to 100
12 | Cc1ccc(NC(=O)c2cc(N3CCOCC3)cc(C(F)(F)F)c2)cc1NC(=O)c1csc2c(NC3CC3)ncnc12 [Example 86] | 100 to 1000 | 1 to 100
13 | COc1ccc(C(=O)Nc2cc(-n3cnc(C)c3)cc(C(F)(F)F)c2)cc1NC(=O)c1csc2c(NC3CC3)ncnc12 [Example 36, 4-(cyclopropylamino)-N-(2-methoxy-5-(3-(4-methyl-1H-imidazole-1-yl)-5-(trifluoromethyl)phenylcarbamoyl)phenyl)thieno[3,2-d]pyrimidine-7-carboxamide] | 1000 to 10000 | 1 to 100
14 | COc1cc(Nc2ncnc3c(C(=O)Nc4cc(C(=O)Nc5cccc(C(F)(F)F)c5)ccc4C)csc23)cc(OC)c1OC [Example 14, N-(2-methyl-5-(3-(trifluoromethyl)phenylcarbamoyl)phenyl)-4-(3,4,5-trimethoxyphenylamino)thieno[3,2-d]pyrimidine-7-carboxamide] | 1000 to 10000 | 100 to 1000
15 | Cc1ccc(NC(=O)c2cccc(C(F)(F)F)c2)cc1NC(=O)c1csc2c(NC3CCCC3)ncnc12 [Example 71, 4-(cyclopentylamino)-N-(2-methyl-5-(3-(trifluoromethyl)benzamido)phenyl)thieno[3,2-d]pyrimidine-7-carboxamide] | 1000 to 10000 | 1 to 100
16 | Cc1cn(-c2cc(NC(=O)c3ccc(C)c(NC(=O)c4csc5c(NC6CC6)ncnc45)c3)cc(C(F)(F)F)c2)c(C)n1 [Example 31, 4-(cyclopropylamino)-N-(5-(3-(2,4-dimethyl-1H-imidazole-1-yl)-5-(trifluoromethyl)phenylcarbamoyl)-2-methylphenyl)thieno[3,2-d]pyrimidine-7-carboxamide] | 1 to 100 | 1 to 100
17 | Cc1ccc(NC(=O)c2cc(-n3ccnc3C)cc(C(F)(F)F)c2)cc1NC(=O)c1csc2c(NC3CC3)ncnc12 [Example 83, 4-(cyclopropylamino)-N-(2-methyl-5-(3-(2-methyl-1H-imidazole-1-yl)-5-(trifluoromethyl)benzoamido)phenyl)thieno[3,2-d]pyrimidine-7-carboxamide] | 1 to 100 | 1 to 100
18 | Cc1ccc(C(=O)Nc2cccc(C(F)(F)F)c2)cc1NC(=O)c1csc2c(N)ncnc12 [Example 8, 4-amino-N-(2-methyl-5-(3-(trifluoromethyl)phenylcarbamoyl)phenyl)thieno[3,2-d]pyrimidine-7-carboxamide] | 1 to 100 | 1 to 100
19 | COc1cc(OC)cc(C(=O)Nc2ccc(C)c(NC(=O)c3csc4c(N)ncnc34)c2)c1 [Example 43, 4-amino-N-(5-(3,5-dimethoxybenzamido)-2-methylphenyl)thieno[3,2-d]pyrimidine-7-carboxamide] | 100 to 1000 | 1 to 100
20 | Cc1ccc(NC(=O)c2cc(C3CC3)on2)cc1NC(=O)c1csc2c(N)ncnc12 [Example 67, N-(3-(4-aminothieno[3,2-d]pyrimidine-7-carboxyamido)-4-methylphenyl)-5-cyclopropylisoxazol-3-carboxamide] | 1000 to 10000 | 1 to 100
21 | Cc1ccc(NC(=O)c2ccc(CN3CC[C@H](N(C)C)C3)c(C(F)(F)F)c2)cc1NC(=O)c1csc2c(NC3CC3)ncnc12 [Example 76, (S)-4-(cyclopropylamino)-N-(5-(4-((3-(dimethylamino)pyrrolidin-1-yl)methyl)-3-(trifluoromethyl)benzoamido)-2-methylphenyl)thieno[3,2-d]pyrimidine-7-carboxamide] | 1 to 100 | 1 to 100

Source: patent US8999973B2, “Thieno[3,2-d]pyrimidine derivatives having inhibitory activity on protein kinases” (Hanmi Science Co., Ltd, priority 2010, dated 2015)
